Data set [1] deals with T1, Indoleamine 2,3-dioxygenase 1 (Homo sapiens, UniProt P14902). Kind of data set: Inhibition of human recombinant IDO1 measured after 60 mins by fluorescence based analysis.
Data set [2] has as its target T1, Indoleamine 2,3-dioxygenase 1. Kind of data set: Inhibition of IDO1 in IFN-gamma treated human HeLa cells incubated for 48 hrs by absorbance based analysis. The class given is cell-based.
Another data set concerns HCT-116. Kind of data set: cells. To be noted: Homo sapiens, HCT-116, 48 h.
In the next data set the test system is SW480. Kind of data set: cells. The settings on record: Homo sapiens, SW480, 48 h.
The subject of the next data set is A549. Put plainly: cells. The settings on record: Homo sapiens, A549, 48 h.
The test system of another data set is HeLa. Put plainly: cells. To be noted: Homo sapiens, 48 h.
The subject of data set [3] is CT26. Kind of data set: Antitumor activity against mouse CT26 cells xenografted in BALB/c mouse model assessed as reduction in tumor weight at 100 mg/kg measured every 3 days for 21 days by caliper method relative to control. It is filed as functional. Details: scale not given: the % may be the effect or the level left. To be noted: time 21 day.
Data set [4] can be described thus: Toxicity in BALB/c mouse assessed as change in body weight at 100 mg/kg measured upto 22 days. The class given is organism-based. The settings on record: in vivo, 528 h, time < 22 day.
In data set [5] the test system is CT26. Kind of data set: Antitumor activity against mouse CT26 cells xenografted in BALB/c mouse model assessed as relative tumor volume growth at 100 mg/kg measured every 3 days for 21 days by caliper method relative to control. The class given is functional. To be noted: time 21 day.

T1 sequence (P14902 whole entry): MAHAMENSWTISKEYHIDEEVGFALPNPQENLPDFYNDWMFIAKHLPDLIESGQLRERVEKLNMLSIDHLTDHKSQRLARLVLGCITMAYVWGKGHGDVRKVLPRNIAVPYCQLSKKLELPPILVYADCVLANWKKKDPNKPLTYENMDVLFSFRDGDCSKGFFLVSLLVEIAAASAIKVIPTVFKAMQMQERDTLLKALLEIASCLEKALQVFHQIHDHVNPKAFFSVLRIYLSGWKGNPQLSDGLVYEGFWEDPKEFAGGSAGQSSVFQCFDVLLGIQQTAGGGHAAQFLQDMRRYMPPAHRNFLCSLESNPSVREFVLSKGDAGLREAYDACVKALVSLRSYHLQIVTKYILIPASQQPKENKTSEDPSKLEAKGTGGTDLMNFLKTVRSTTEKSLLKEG

Take `COc1ccc(S(=O)(=O)N2CCN(C(=O)c3c/c(=N\O)c4ccc(C)cc4o3)CC2)cc1`: the IC50 in [1] is 9.45 µM; in data set [2] it was more than 10 µM; in the data set on HCT-116, 1.48 µM; in the data set with SW480 it was 17.6 µM; in the data set with A549 it was 41.4 µM; in the data set on HeLa, more than 50 µM.

`COc1ccc2/c(=N/O)cc(C(=O)N3CCN(S(=O)(=O)c4ccccc4Cl)CC3)oc2c1`: the IC50 in data set [1] is more than 10 µM; in data set [2], more than 10 µM; with HCT-116, more than 50 µM; in the data set with SW480 it was more than 50 µM; in the data set on A549, more than 50 µM; with HeLa, more than 50 µM.

For the compound `COc1ccc2/c(=N/O)cc(C(=O)N3CCN(S(=O)(=O)c4ccc(OC)c(OC)c4)CC3)oc2c1`, the IC50 in data set [1] is 0.92 µM; in data set [2], 1.68 µM; in the data set with HCT-116, 47.8 µM; in the data set with SW480 it was more than 50 µM; in the data set with A549, more than 50 µM; in the data set on HeLa, 34 µM.

For the compound `Cn1cc(C[C@H](N)C(=O)O)c2ccccc21` [(L)-1-METHYLTRYPTOPHAN], the Activity is on record as 45.6% with CT26 [3] and “Non-Toxic” in data set [4].

With `Nc1nonc1C(=NO)Nc1ccc(F)c(Cl)c1`, the Activity in the data set on CT26 [5] is listed as 26.05%; with CT26 [3], 70.9%; in data set [4], “Non-Toxic”.

For `COc1ccc2/c(=N/O)cc(C(=O)N3CCN(S(=O)(=O)c4ccc(C(F)(F)F)cc4)CC3)oc2c1`, the IC50 in [1] was 2.69 µM; in data set [2], 6.37 µM; with HCT-116, more than 50 µM; in the data set with SW480, more than 50 µM; in the data set with A549, more than 50 µM; in the data set on HeLa, more than 50 µM.

With `COc1ccc2/c(=N/O)cc(C(=O)N3CCN(S(=O)(=O)c4cccc(Br)c4)CC3)oc2c1`, the IC50 in [1] was 6.14 µM; in data set [2] it was 9.81 µM; in the data set on HCT-116, more than 50 µM; in the data set on SW480, more than 50 µM; with A549, more than 50 µM; in the data set with HeLa, 44.8 µM.

For the compound `Cc1ccc2/c(=N/O)cc(C(=O)N3CCN(S(=O)(=O)c4ccc(F)c(F)c4)CC3)oc2c1`, the IC50 was 5.59 µM in data set [1]; 5.75 µM in data set [2]; 4.18 µM in the data set on HCT-116; 27.6 µM in the data set with SW480; more than 50 µM in the data set on A549; more than 50 µM in the data set on HeLa.

For the compound `Cc1ccc2/c(=N/O)cc(C(=O)N3CCN(S(=O)(=O)c4ccc(Br)cc4)CC3)oc2c1`, the IC50 was more than 10 µM in data set [1]; more than 10 µM in [2]; 28.3 µM in the data set with HCT-116; more than 50 µM in the data set on SW480; 46.1 µM with A549; more than 50 µM in the data set on HeLa.

Consider `COc1ccc2/c(=N/O)cc(C(=O)N3CCN(S(=O)(=O)c4ccc(F)cc4)CC3)oc2c1`, for which the IC50 in [1] was 5.72 µM; in data set [2], 7.23 µM; in the data set on HCT-116, more than 50 µM; in the data set with SW480, 12.4 µM; with A549 it was more than 50 µM; with HeLa, more than 50 µM.

`COc1ccc(S(=O)(=O)N2CCN(C(=O)c3c/c(=N\O)c4ccc(OC)cc4o3)CC2)cc1`: the IC50 was 6.35 µM in data set [1]; 8.52 µM in data set [2]; 29.5 µM in the data set with HCT-116; 39.2 µM with SW480; more than 50 µM in the data set with A549; 36.8 µM in the data set on HeLa.

As for `COc1ccc2/c(=N/O)cc(C(=O)N3CCN(S(=O)(=O)c4cccc(F)c4)CC3)oc2c1`, the IC50 is 2.38 µM in data set [1]; 4.13 µM in [2]; more than 50 µM in the data set on HCT-116; more than 50 µM in the data set with SW480; more than 50 µM with A549; 42.8 µM with HeLa.

For the compound `NS(=O)(=O)NCCNc1nonc1/C(=N/O)Nc1ccc(F)c(Br)c1` [EPACADOSTAT], the IC50 in the data set with HCT-116, with SW480, in the data set with A549 and in the data set with HeLa was more than 50 µM throughout.

In the case of `COc1ccc2/c(=N/O)cc(C(=O)N3CCN(S(=O)(=O)c4ccc(Cl)c(Cl)c4)CC3)oc2c1`, the IC50 in [1] is 3.73 µM; in data set [2] it was 7.61 µM; in the data set with HCT-116, more than 50 µM; in the data set with SW480 it was more than 50 µM; in the data set with A549 it was more than 50 µM; in the data set on HeLa, more than 50 µM.

Regarding `COc1ccc2/c(=N/O)cc(C(=O)N3CCN(S(=O)(=O)c4cccc([N+](=O)[O-])c4)CC3)oc2c1`, the IC50 was 1.95 µM in [1]; 4.46 µM in data set [2]; 19.4 µM in the data set with HCT-116; more than 50 µM in the data set with SW480; more than 50 µM in the data set on A549; more than 50 µM in the data set on HeLa.

Consider `COc1ccc2/c(=N/O)cc(C(=O)N3CCN(S(=O)(=O)c4ccc([N+](=O)[O-])cc4)CC3)oc2c1`, for which the IC50 is 3.58 µM in data set [1]; 5.66 µM in [2]; more than 50 µM in the data set with HCT-116; more than 50 µM with SW480; more than 50 µM with A549; 30.1 µM in the data set with HeLa.

Consider `COc1ccc2/c(=N/O)cc(C(=O)N3CCN(S(=O)(=O)c4ccc(C)cc4)CC3)oc2c1`, for which the IC50 in data set [1] is more than 10 µM; in data set [2], more than 10 µM; in the data set on HCT-116 it was 31.1 µM; in the data set on SW480, 33.1 µM; with A549 it was 36.9 µM; in the data set on HeLa it was 20.1 µM.

With `COc1ccc2/c(=N/O)cc(C(=O)N3CCN(S(=O)(=O)c4ccccc4C)CC3)oc2c1`, the IC50 in data set [1] was more than 10 µM; in data set [2], more than 10 µM; in the data set with HCT-116 it was 23.5 µM; in the data set on SW480, more than 50 µM; in the data set on A549, more than 50 µM; with HeLa, more than 50 µM.

For `COc1ccc2/c(=N/O)cc(C(=O)N3CCN(S(=O)(=O)c4ccccc4C(F)(F)F)CC3)oc2c1`, the IC50 in data set [1] was 8.85 µM; in data set [2], more than 10 µM; in the data set with HCT-116, more than 50 µM; in the data set with SW480, more than 50 µM; in the data set with A549, more than 50 µM; with HeLa it was 38 µM.

As to `Cc1ccc2/c(=N/O)cc(C(=O)N3CCN(S(=O)(=O)c4cccc([N+](=O)[O-])c4)CC3)oc2c1`, the IC50 is 7.52 µM in [1]; 8.84 µM in data set [2]; 6.44 µM in the data set with HCT-116; 17.1 µM with SW480; more than 50 µM with A549; 29.4 µM in the data set with HeLa.

With `COc1ccc2/c(=N/O)cc(C(=O)N3CCN(S(=O)(=O)c4ccc(Br)cc4)CC3)oc2c1`, the half-maximal inhibitory concentration (IC50) in data set [1] is 9.42 µM; in data set [2] it was more than 10 µM; in the data set on HCT-116, 18.5 µM; with SW480, more than 50 µM; in the data set on A549, more than 50 µM; in the data set on HeLa it was more than 50 µM.

Turning to `Cc1ccc2/c(=N/O)cc(C(=O)N3CCN(S(=O)(=O)c4ccc(Cl)cc4)CC3)oc2c1`, the IC50 is more than 10 µM in data set [1]; more than 10 µM in data set [2]; 15.2 µM in the data set on HCT-116; more than 50 µM in the data set with SW480; more than 50 µM in the data set with A549; more than 50 µM in the data set on HeLa.

Consider `COc1ccc2/c(=N/O)cc(C(=O)N3CCN(S(=O)(=O)c4ccc(Cl)cc4)CC3)oc2c1`, for which the IC50 in [1] was 7.07 µM; in data set [2], 7.78 µM; with HCT-116 it was 42 µM; with SW480 it was 11.6 µM; in the data set on A549, more than 50 µM; in the data set on HeLa it was more than 50 µM.

As for `Cc1ccc2/c(=N/O)cc(C(=O)N3CCN(S(=O)(=O)c4ccc(F)cc4)CC3)oc2c1`, the IC50 in data set [1] was 9.18 µM; in [2], 9.29 µM; in the data set on HCT-116, 34.8 µM; in the data set with SW480, 31.2 µM; with A549, more than 50 µM; with HeLa, more than 50 µM.

As to `COc1ccc(S(=O)(=O)N2CCN(C(=O)c3c/c(=N\O)c4ccc(C)cc4o3)CC2)cc1OC`, the IC50 in [1] was 6.23 µM; in data set [2], 7.8 µM; in the data set on HCT-116, more than 50 µM; in the data set on SW480, more than 50 µM; in the data set with A549 it was more than 50 µM; in the data set with HeLa it was more than 50 µM.

These data come from ChEMBL document CHEMBL5325421, “Discovery of novel sulfonamide chromone-oxime derivatives as potent indoleamine 2,3-dioxygenase 1 inhibitors” (Eur J Med Chem, 2023).
